Results on 8 compounds are retold here after patent publication US4713445A, “Renin inhibitors and treatments using them” (priority 1983, dated 1987).

In the test the target is T1, human renin (Homo sapiens, UniProt P00797).
T1 construct: angiotensin-I released from human renin substrate by human resin in human plasma; from tissue; host or cells: human plasma (containing EDTA)
T1 sequence (P00797 67-406): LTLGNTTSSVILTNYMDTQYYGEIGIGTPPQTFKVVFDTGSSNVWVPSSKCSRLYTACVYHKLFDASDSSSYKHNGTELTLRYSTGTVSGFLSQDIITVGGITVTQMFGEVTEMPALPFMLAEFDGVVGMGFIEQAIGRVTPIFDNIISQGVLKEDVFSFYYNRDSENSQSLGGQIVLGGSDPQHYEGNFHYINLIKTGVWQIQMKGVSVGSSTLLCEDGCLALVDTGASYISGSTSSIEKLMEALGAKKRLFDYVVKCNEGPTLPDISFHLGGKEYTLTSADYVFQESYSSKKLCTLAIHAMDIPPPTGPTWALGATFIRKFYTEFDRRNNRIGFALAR
Briefly: human renin-renin substrate reaction in vitro; radioimmunoassay of angiotensin-I released in human plasma. The class given is biochemical. An excerpt:
Preliminary activity test results in the human […] substrate reaction in vitro are given, with comparative figures for the tetrapeptide analogue (III). […] The test results given herein are based on the methods described by J. A. Miller et al in Clinica Chimica Acta (1980) 101 5-15 and K. Poulsen and J. Jorgensen in J. Clin. Endocrinol. Metab. (1974) 39 816, and is based on the measurement, by radioimmunoassay, of angiotensin-I released from human renin substrate by human resin in human plasma. The inhibitor is dissolved in 0.01N HCl (10 μl) and added to hmman plasma (75 μl) containing EDTA, and angiotensin-I antibody (15 μl) in 3M-Tris/HCl buffer (pH 6.9). After incubation at 37° C. for 0-120 minutes, the enzymic reaction is quenched by the addition of ice-cold 0.25M Tris/HCl buffer (pH 7.4) containing 0.01% of bovine serum albumin. 125I-labelled angiotensin-I is added, followed by equilibration at 4° C. for 48 hours. Free and bound ligand are separated by the addition of dextrancoated charcoal, and the amount of bound radio-ligand determined in a gamma counter.

The mark [1] stands for this setting: Table 5, human renin-renin substrate reaction in vitro, read-out: IC50.
The mark [2] stands for this setting: Table 2, read-out: IC50 μM v/s human renin.
The mark [3] stands for this setting: Table I, human renin in human plasma, read-out: IC50, μM human.

Like-named read-outs stand apart in the source and are kept apart here. *1 amine or outer side, *2 acyl side, *3 side chain or, on linkers, in order; H or OH if unused. Where a SMILES comes first, the peptide text is derived from it. [ ]: non-standard residue; d: D form. The star is where a group is joined. X3 = CC[C@H](C)[C@H](NC(=O)[C@@H](NC[C@H](CC(C)C)N*)C(C)C)C(=O)N[C@@H](Cc1ccc(O)cc1)C(=O)O; X5 = CC(C)C[C@@H](CN[C@H](C(=O)N[C@@H](Cc1c[nH]cn1)C(=O)NCCCCCN)C(C)C)N*; X1 = CC(C)C[C@H](N[*:1])[C@@H](O)C[C@H](C(=O)[*:2])C(C)C; Boc = CC(C)(C)OC(=O)*

With `CC(C)C[C@@H](CN[C@@H](CC(C)C)C(=O)N[C@H](C(=O)N[C@@H](Cc1ccc(O)cc1)C(=O)O)C(C)C)NC(=O)[C@H](Cc1c[nH]cn1)NC(=O)[C@H](Cc1ccccc1)NC(=O)[C@@H]1CCCN1C(=O)[C@@H](N)Cc1c[nH]cn1` [Example I, H-His-Pro-Phe-His-Leu-reduced-Leu-Val-Tyr-OH], the IC50 under setting [1] came out at 1 µM.

Regarding `CC[C@H](C)[C@H](NC(=O)[C@@H](C[C@H](O)[C@H](CC(C)C)NC(=O)[C@H](Cc1c[nH]cn1)NC(=O)[C@H](Cc1ccccc1)NC(=O)OC(C)(C)C)C(C)C)C(=O)OC` [Example L], the IC50 under setting [2] was determined as 0.005 µM.

For the compound `CC[C@H](C)[C@H](NC(=O)[C@@H](C[C@H](O)[C@H](CC(C)C)NC(=O)[C@H](Cc1c[nH]cn1)NC(=O)[C@H](Cc1ccccc1)NC(=O)OC(C)(C)C)C(C)C)C(=O)N[C@@H](Cc1c[nH]cn1)C(=O)O` [Example XLVI] (Boc-FH[X1]IH-OH), under setting [2], the IC50 worked out at 0.007 µM.

As for `CC(C)C[C@@H](CN[C@@H](CC(C)C)C(=O)N[C@H](C(=O)N[C@@H](Cc1ccc(O)cc1)C(=O)O)C(C)C)NC(=O)[C@H](Cc1c[nH]cn1)NC(=O)[C@H](Cc1ccccc1)NC(=O)[C@@H]1CCCN1C(=O)[C@H](N)Cc1c[nH]cn1` [Example IV, H-DHis-Pro-Phe-His-Leu-reduced-Leu-Val-Tyr-OH], under setting [1], the IC50 came to 1 µM.

Regarding `CC(C)C[C@@H](CN[C@H](C(=O)N[C@@H](Cc1c[nH]cn1)C(=O)NCCCCCN)C(C)C)NC(=O)[C@H](Cc1c[nH]cn1)NC(=O)[C@H](Cc1ccccc1)NC(=O)[C@@H]1CCCN1C(=O)[C@H](Cc1c[nH]cn1)NC(=O)[C@@H]1CCCN1` [XVIII] (H-PHPFH-X5), under setting [3], the IC50 was found to be 3 µM.

Regarding `CC[C@H](C)[C@H](NC(=O)[C@@H](NC[C@H](CC(C)C)NC(=O)[C@H](Cc1c[nH]cn1)NC(=O)[C@H](Cc1ccccc1)NC(=O)[C@@H]1CCCN1C(=O)[C@H](Cc1c[nH]cn1)NC(=O)[C@@H]1CCCN1)C(C)C)C(=O)N[C@@H](Cc1ccc(O)cc1)C(=O)O` [XXX] (H-PHPFH-X3), the IC50 under setting [3] was 0.048 µM.

As to `CC[C@H](C)[C@H](NC(=O)[C@@H](NC[C@H](CC(C)C)NC(=O)[C@H](Cc1c[nH]cn1)NC(=O)[C@H](Cc1ccccc1)NC(=O)[C@@H]1CCCN1C(=O)[C@H](Cc1c[nH]cn1)NC(=O)[C@@H]1CCCN1)C(C)C)C(=O)N[C@@H](Cc1ccc(O)cc1)C(=O)NCCCCCN` [XX], under setting [3], the IC50 was 3 µM.

Turning to `CC[C@H](C)[C@H](NC(=O)[C@@H](NC[C@H](CC(C)C)NC(=O)[C@H](Cc1c[nH]cn1)NC(=O)[C@H](Cc1ccccc1)NC(=O)[C@@H]1CCCN1C(=O)[C@@H](Cc1c[nH]cn1)NC(=O)[C@@H]1CCCN1)C(C)C)C(=O)N[C@@H](Cc1c[nH]cn1)C(=O)N[C@H](CCCCN)C(=O)O` [Example XL], the IC50 under setting [3] worked out at 0.2 µM.
